Experimental data from ChEMBL document CHEMBL3046757, “Design, synthesis, and biological evaluation of novel pyridine acid esters of podophyllotoxin and esters of 4-demethylepipodophyllotoxin” (2007).

Experiments:
Type in all cases: functional
P388 [1] = assay: Growth inhibition of Mus musculus (mouse) P388 cells at 10^-4 mol/l after 72 hr by MTT assay; details: P388, 72 h, read-out: GI
P388 [2] = assay: Growth inhibition of Mus musculus (mouse) P388 cells at 10^-6 mol/l after 72 hr by MTT assay; details: P388, 72 h, read-out: GI
A549 [3] = assay: Growth inhibition of Homo sapiens (human) A549 cells at 10^-4 mol/l after 72 hr by MTT assay; details: A549, 72 h, read-out: GI
A549 [4] = assay: Growth inhibition of Homo sapiens (human) A549 cells at 10^-6 mol/l after 72 hr by MTT assay; details: A549, 72 h, read-out: GI
P388 [5] = assay: Growth inhibition of Mus musculus (mouse) P388 cells at 10^-7 mol/l after 72 hr by MTT assay; details: P388, 72 h, read-out: GI
A549 [6] = assay: Growth inhibition of Homo sapiens (human) A549 cells at 10^-8 mol/l after 72 hr by MTT assay; details: A549, 72 h, read-out: GI
A549 [7] = assay: Growth inhibition of Homo sapiens (human) A549 cells at 10^-7 mol/l after 72 hr by MTT assay; details: A549, 72 h, read-out: GI
P388 [8] = assay: Growth inhibition of Mus musculus (mouse) P388 cells at 10^-5 mol/l after 72 hr by MTT assay; details: P388, 72 h, read-out: GI
A549 [9] = assay: Growth inhibition of Homo sapiens (human) A549 cells at 10^-5 mol/l after 72 hr by MTT assay; details: A549, 72 h, read-out: GI
P388 [10] = assay: Growth inhibition of Mus musculus (mouse) P388 cells at 10^-8 mol/l after 72 hr by MTT assay; details: P388, 72 h, read-out: GI

## COc1cc([C@@H]2c3cc4c(cc3[C@@H](OC(=O)c3cccnc3Cl)[C@H]3COC(=O)[C@H]23)OCO4)cc(OC)c1O [4-O-DEMETHYLEPIPODOPHYLLOTOXINYL-2'-CHLORONICOTINATE]
P388 [1]
  inhibition of growth at 100 µM: 100%
P388 [2]
  inhibition of growth at 1 µM: 72.3%
A549 [3]
  inhibition of growth at 100 µM: 92.5%
A549 [4]
  inhibition of growth at 1 µM: 69.8%
P388 [5]
  inhibition of growth at 0.1 µM: 12.8%
A549 [6]
  inhibition of growth at 0.01 µM: 56.6%
A549 [7]
  inhibition of growth at 0.1 µM: 62.5%
P388 [8]
  inhibition of growth at 10 µM: 84.7%
A549 [9]
  inhibition of growth at 10 µM: 78.1%
P388 [10]
  inhibition of growth at 0.01 µM: 9.1%

## COc1cc([C@@H]2c3cc4c(cc3[C@@H](OC(=O)c3cncc(Br)c3)[C@H]3COC(=O)[C@H]23)OCO4)cc(OC)c1O [4-O-DEMETHYLEPIPODOPHYLLOTOXINYL-5'-BROMONICOTINATE]
P388 [1]
  inhibition of growth at 100 µM: 100%
P388 [2]
  inhibition of growth at 1 µM: 66.1%
A549 [3]
  inhibition of growth at 100 µM: 87.3%
A549 [4]
  inhibition of growth at 1 µM: 78.4%
P388 [5]
  inhibition of growth at 0.1 µM: 63.5%
A549 [6]
  inhibition of growth at 0.01 µM: 71%
A549 [7]
  inhibition of growth at 0.1 µM: 74.6%
P388 [8]
  inhibition of growth at 10 µM: 87.4%
A549 [9]
  inhibition of growth at 10 µM: 82%
P388 [10]
  inhibition of growth at 0.01 µM: 2%

## COc1cc([C@@H]2c3cc4c(cc3[C@@H](OC(=O)c3ccc(Cl)nc3)[C@H]3COC(=O)[C@H]23)OCO4)cc(OC)c1O [4-O-DEMETHYLEPIPODOPHYLLOTOXINYL-6'-CHLORONICOTINATE]
P388 [1]
  inhibition of growth at 100 µM: 100%
P388 [2]
  inhibition of growth at 1 µM: 73.4%
A549 [3]
  inhibition of growth at 100 µM: 85.4%
A549 [4]
  inhibition of growth at 1 µM: 72.5%
P388 [5]
  inhibition of growth at 0.1 µM: 28.4%
A549 [6]
  inhibition of growth at 0.01 µM: 59.3%
A549 [7]
  inhibition of growth at 0.1 µM: 70.7%
P388 [8]
  inhibition of growth at 10 µM: 81.1%
A549 [9]
  inhibition of growth at 10 µM: 93.9%
P388 [10]
  inhibition of growth at 0.01 µM: 20.2%

## COc1cc([C@@H]2c3cc4c(cc3[C@@H](OC(=O)c3ccncc3)[C@H]3COC(=O)[C@H]23)OCO4)cc(OC)c1O [4-O-DEMETHYLEPIPODOPHYLLOTOXINYL-ISONICOTINATE]
P388 [1]
  inhibition of growth at 100 µM: 100%
P388 [2]
  inhibition of growth at 1 µM: 76.5%
A549 [3]
  inhibition of growth at 100 µM: 95.1%
A549 [4]
  inhibition of growth at 1 µM: 66.4%
P388 [5]
  inhibition of growth at 0.1 µM: 53.5%
A549 [6]
  inhibition of growth at 0.01 µM: 54%
A549 [7]
  inhibition of growth at 0.1 µM: 66.1%
P388 [8]
  inhibition of growth at 10 µM: 86.9%
A549 [9]
  inhibition of growth at 10 µM: 67.8%
P388 [10]
  inhibition of growth at 0.01 µM: 19.8%

## COc1cc([C@@H]2c3cc4c(cc3[C@@H](OC(=O)c3cccnc3)[C@H]3COC(=O)[C@H]23)OCO4)cc(OC)c1O [4-O-DEMETHYLEPIPODOPHYLLOTOXINYL-NICOTINATE]
P388 [1]
  inhibition of growth at 100 µM: 100%
P388 [2]
  inhibition of growth at 1 µM: 72.1%
A549 [3]
  inhibition of growth at 100 µM: 91.4%
A549 [4]
  inhibition of growth at 1 µM: 74%
P388 [5]
  inhibition of growth at 0.1 µM: 71.4%
A549 [6]
  inhibition of growth at 0.01 µM: 71.9%
A549 [7]
  inhibition of growth at 0.1 µM: 72.6%
P388 [8]
  inhibition of growth at 10 µM: 87.9%
A549 [9]
  inhibition of growth at 10 µM: 79.9%
P388 [10]
  inhibition of growth at 0.01 µM: 4.4%

## COc1cc([C@@H]2c3cc4c(cc3[C@@H](OC(=O)c3ccccn3)[C@H]3COC(=O)[C@H]23)OCO4)cc(OC)c1O [4-O-DEMETHYLEPIPODOPHYLLOTOXINYL-PICOLINATE]
P388 [1]
  inhibition of growth at 100 µM: 100%
P388 [2]
  inhibition of growth at 1 µM: 73.5%
A549 [3]
  inhibition of growth at 100 µM: 91.6%
A549 [4]
  inhibition of growth at 1 µM: 73.7%
P388 [5]
  inhibition of growth at 0.1 µM: 68%
A549 [6]
  inhibition of growth at 0.01 µM: 53.7%
A549 [7]
  inhibition of growth at 0.1 µM: 56%
P388 [8]
  inhibition of growth at 10 µM: 88.6%
A549 [9]
  inhibition of growth at 10 µM: 78.8%
P388 [10]
  inhibition of growth at 0.01 µM: 39.7%

## COc1cc([C@@H]2c3cc4c(cc3[C@H](OC(=O)c3cccnc3Cl)[C@H]3COC(=O)[C@H]23)OCO4)cc(OC)c1OC [4-O-PODOPHYLLOTOXINYL-2'-CHLORONICOTINATE]
P388 [1]
  inhibition of growth at 100 µM: 87.3%
P388 [2]
  inhibition of growth at 1 µM: 85%
A549 [3]
  inhibition of growth at 100 µM: 86.6%
A549 [4]
  inhibition of growth at 1 µM: 81.3%
P388 [5]
  inhibition of growth at 0.1 µM: 84.7%
A549 [6]
  inhibition of growth at 0.01 µM: 79.5%
A549 [7]
  inhibition of growth at 0.1 µM: 80.4%
P388 [8]
  inhibition of growth at 10 µM: 85.8%
A549 [9]
  inhibition of growth at 10 µM: 82.5%
P388 [10]
  inhibition of growth at 0.01 µM: 80.6%

## COc1cc([C@@H]2c3cc4c(cc3[C@H](OC(=O)c3cncc(Br)c3)[C@H]3COC(=O)[C@H]23)OCO4)cc(OC)c1OC [4-O-PODOPHYLLOTOXINYL-5'-BROMONICOTINATE]
P388 [1]
  inhibition of growth at 100 µM: 97.7%
P388 [2]
  inhibition of growth at 1 µM: 85%
A549 [3]
  inhibition of growth at 100 µM: 91.1%
A549 [4]
  inhibition of growth at 1 µM: 82.7%
P388 [5]
  inhibition of growth at 0.1 µM: 82.8%
A549 [6]
  inhibition of growth at 0.01 µM: 77.3%
A549 [7]
  inhibition of growth at 0.1 µM: 80.9%
P388 [8]
  inhibition of growth at 10 µM: 87.4%
A549 [9]
  inhibition of growth at 10 µM: 84.7%
P388 [10]
  inhibition of growth at 0.01 µM: 80.6%

## COc1cc([C@@H]2c3cc4c(cc3[C@H](OC(=O)c3ccc(Cl)nc3)[C@H]3COC(=O)[C@H]23)OCO4)cc(OC)c1OC [4-O-PODOPHYLLOTOXINYL-6'-CHLORONICOTINATE]
P388 [1]
  inhibition of growth at 100 µM: 92.1%
P388 [2]
  inhibition of growth at 1 µM: 85%
A549 [3]
  inhibition of growth at 100 µM: 87.9%
A549 [4]
  inhibition of growth at 1 µM: 85.9%
P388 [5]
  inhibition of growth at 0.1 µM: 84.3%
A549 [6]
  inhibition of growth at 0.01 µM: 81.5%
A549 [7]
  inhibition of growth at 0.1 µM: 83%
P388 [8]
  inhibition of growth at 10 µM: 88.3%
A549 [9]
  inhibition of growth at 10 µM: 87%
P388 [10]
  inhibition of growth at 0.01 µM: 80.1%

## COc1cc([C@@H]2c3cc4c(cc3[C@H](OC(=O)c3ccncc3)[C@H]3COC(=O)[C@H]23)OCO4)cc(OC)c1OC [4-O-PODOPHYLLOTOXINYL-ISONICOTINATE]
P388 [1]
  inhibition of growth at 100 µM: 89%
P388 [2]
  inhibition of growth at 1 µM: 84.8%
A549 [3]
  inhibition of growth at 100 µM: 89.2%
A549 [4]
  inhibition of growth at 1 µM: 82.6%
P388 [5]
  inhibition of growth at 0.1 µM: 84.8%
A549 [6]
  inhibition of growth at 0.01 µM: 81.4%
A549 [7]
  inhibition of growth at 0.1 µM: 81.8%
P388 [8]
  inhibition of growth at 10 µM: 85.1%
A549 [9]
  inhibition of growth at 10 µM: 84.4%
P388 [10]
  inhibition of growth at 0.01 µM: 83.8%

## COc1cc([C@@H]2c3cc4c(cc3[C@H](OC(=O)c3cccnc3)[C@H]3COC(=O)[C@H]23)OCO4)cc(OC)c1OC [4-O-PODOPHYLLOTOXINYL-NICOTINATE]
P388 [1]
  inhibition of growth at 100 µM: 87.5%
P388 [2]
  inhibition of growth at 1 µM: 84.1%
A549 [3]
  inhibition of growth at 100 µM: 87.5%
A549 [4]
  inhibition of growth at 1 µM: 82.8%
P388 [5]
  inhibition of growth at 0.1 µM: 83.8%
A549 [6]
  inhibition of growth at 0.01 µM: 81%
A549 [7]
  inhibition of growth at 0.1 µM: 82.2%
P388 [8]
  inhibition of growth at 10 µM: 84.8%
A549 [9]
  inhibition of growth at 10 µM: 84.9%
P388 [10]
  inhibition of growth at 0.01 µM: 83.4%

## COc1cc([C@@H]2c3cc4c(cc3[C@H](OC(=O)c3ccccn3)[C@H]3COC(=O)[C@H]23)OCO4)cc(OC)c1OC [4-O-PODOPHYLLOTOXINYL-PICOLINATE]
P388 [1]
  inhibition of growth at 100 µM: 87.7%
P388 [2]
  inhibition of growth at 1 µM: 86%
A549 [3]
  inhibition of growth at 100 µM: 89.2%
A549 [4]
  inhibition of growth at 1 µM: 82.3%
P388 [5]
  inhibition of growth at 0.1 µM: 85.5%
A549 [6]
  inhibition of growth at 0.01 µM: 81.4%
A549 [7]
  inhibition of growth at 0.1 µM: 81.8%
P388 [8]
  inhibition of growth at 10 µM: 87%
A549 [9]
  inhibition of growth at 10 µM: 84%
P388 [10]
  inhibition of growth at 0.01 µM: 85.4%

## COc1cc([C@@H]2c3cc4c(cc3[C@@H](O[C@@H]3O[C@@H]5CO[C@@H](C)O[C@H]5[C@H](O)[C@H]3O)[C@H]3COC(=O)[C@H]23)OCO4)cc(OC)c1O [ETOPOSIDE]
P388 [1]
  inhibition of growth at 100 µM: 99.2%
P388 [2]
  inhibition of growth at 1 µM: 25.5%
A549 [3]
  inhibition of growth at 100 µM: 97.5%
A549 [4]
  inhibition of growth at 1 µM: 45%
P388 [5]
  inhibition of growth at 0.1 µM: 6%
A549 [6]
  inhibition of growth at 0.01 µM: 0%
A549 [7]
  inhibition of growth at 0.1 µM: 0%
P388 [8]
  inhibition of growth at 10 µM: 70.6%
A549 [9]
  inhibition of growth at 10 µM: 50.7%
P388 [10]
  inhibition of growth at 0.01 µM: 1.8%
